In PubChem BioAssay AID2060486 (Molecular Pharmacology Branch, DTP, NCI, 2025):

Tested on: IGROV1 complex spheroids (HUVEC, MSC), viability % test/control
Test: Anticancer human tumor IGROV1 cell line growth inhibition [GQUAD];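 note: spheroids exposed to compounds for 7 days before readout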;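 for viability, T/C: 100% = DMSO vehicle control viability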
Details: for IC50: curve of first compound; for viability, T/C: stronger effect = lower value
Procedure, shortened: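 Viability of tumor cells grown as complex spheroids with endothelial and stromal cells, exposed to drug combinations. Top concentration at or near clinical Cmax (else 10 microM), diluted in half-log increments.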

[1] = second compound 0.0316 µM, first compound 0.0316 µM
[2] = second compound 0.0316 µM, first compound 0.1 µM
[3] = second compound 0.0316 µM, first compound 0.316 µM
[4] = second compound 0.0316 µM, first compound 1 µM
[5] = second compound 0.0316 µM, first compound 3.16 µM
[6] = second compound 0.0316 µM, first compound 10 µM
[7] = second compound 0.1 µM, first compound 0.0316 µM
[8] = second compound 0.1 µM, first compound 0.1 µM
[9] = second compound 0.1 µM, first compound 0.316 µM
[10] = second compound 0.1 µM, first compound 1 µM
[11] = second compound 0.1 µM, first compound 3.16 µM
[12] = second compound 0.1 µM, first compound 10 µM
[13] = second compound 0.316 µM, first compound 0.0316 µM
[14] = second compound 0.316 µM, first compound 0.1 µM
[15] = second compound 0.316 µM, first compound 0.316 µM
[16] = second compound 0.316 µM, first compound 1 µM
[17] = second compound 0.316 µM, first compound 3.16 µM
[18] = second compound 0.316 µM, first compound 10 µM
[19] = second compound 1 µM, first compound 0.0316 µM
[20] = second compound 1 µM, first compound 0.1 µM
[21] = second compound 1 µM, first compound 0.316 µM
[22] = second compound 1 µM, first compound 1 µM
[23] = second compound 1 µM, first compound 3.16 µM
[24] = second compound 1 µM, first compound 10 µM
[25] = second compound 3.16 µM, first compound 0.0316 µM
[26] = second compound 3.16 µM, first compound 0.1 µM
[27] = second compound 3.16 µM, first compound 0.316 µM
[28] = second compound 3.16 µM, first compound 1 µM
[29] = second compound 3.16 µM, first compound 3.16 µM
[30] = second compound 3.16 µM, first compound 10 µM
[31] = second compound 10 µM, first compound 0.0316 µM
[32] = second compound 10 µM, first compound 0.1 µM
[33] = second compound 10 µM, first compound 0.316 µM
[34] = second compound 10 µM, first compound 1 µM
[35] = second compound 10 µM, first compound 3.16 µM
[36] = second compound 10 µM, first compound 10 µM

C#Cc1c(F)ccc2cc(O)cc(-c3ncc4c(N5CC6CCC(C5)N6)nc(OCC56CCCN5CC(F)C6)nc4c3F)c12 (stereo unspecified) + CN(C)c1ccc(Nc2c3ccc(NC(=O)CCN4CCCC4)cc3nc3cc(NC(=O)CCN4CCCC4)ccc23)cc1
IC50 (second compound 0.0316 µM): > 10 µM | IC50 (second compound 0.1 µM): > 10 µM | IC50 (second compound 0.316 µM): > 10 µM | IC50 (second compound 1 µM): 8.19 µM | IC50 (second compound 3.16 µM): 5.09 µM | IC50 (second compound 10 µM): 0.378 µM | viability, T/C [1]: 106% | viability, T/C [2]: 76.6% | viability, T/C [3]: 97.9% | viability, T/C [4]: 78.1% | viability, T/C [5]: 84.5% | viability, T/C [6]: 62.2% | viability, T/C [7]: 97.3% | viability, T/C [8]: 83.7% | viability, T/C [9]: 88% | viability, T/C [10]: 84.3% | viability, T/C [11]: 93% | viability, T/C [12]: 62.1% | viability, T/C [13]: 87.8% | viability, T/C [14]: 99.1% | viability, T/C [15]: 76.3% | viability, T/C [16]: 86% | viability, T/C [17]: 89.5% | viability, T/C [18]: 54% | viability, T/C [19]: 86.1% | viability, T/C [20]: 89% | viability, T/C [21]: 86.7% | viability, T/C [22]: 73.6% | viability, T/C [23]: 74.1% | viability, T/C [24]: 44.8% | viability, T/C [25]: 86.4% | viability, T/C [26]: 85.4% | viability, T/C [27]: 87.7% | viability, T/C [28]: 79% | viability, T/C [29]: 66.2% | viability, T/C [30]: 27.9% | viability, T/C [31]: 50% | viability, T/C [32]: 50.4% | viability, T/C [33]: 59.8% | viability, T/C [34]: 38% | viability, T/C [35]: 17.2% | viability, T/C [36]: 5.16%

CC(C)(O)C1CCC(Nc2ccc3ncc(-c4cccc(C(F)(F)F)c4)n3n2)CC1 (stereo unspecified) + CN(C)c1ccc(Nc2c3ccc(NC(=O)CCN4CCCC4)cc3nc3cc(NC(=O)CCN4CCCC4)ccc23)cc1
IC50 (second compound 0.0316 µM): 2.18 µM | IC50 (second compound 0.1 µM): 2.24 µM | IC50 (second compound 0.316 µM): 1.42 µM | IC50 (second compound 1 µM): 1.75 µM | IC50 (second compound 3.16 µM): 1.37 µM | IC50 (second compound 10 µM): 0.134 µM | viability, T/C [1]: 103% | viability, T/C [2]: 83.8% | viability, T/C [3]: 74.8% | viability, T/C [4]: 74% | viability, T/C [5]: 32.3% | viability, T/C [6]: 35.5% | viability, T/C [7]: 101% | viability, T/C [8]: 91.8% | viability, T/C [9]: 70.6% | viability, T/C [10]: 70.1% | viability, T/C [11]: 36.7% | viability, T/C [12]: 39.5% | viability, T/C [13]: 93.7% | viability, T/C [14]: 63.9% | viability, T/C [15]: 85.9% | viability, T/C [16]: 58% | viability, T/C [17]: 30.1% | viability, T/C [18]: 33.2% | viability, T/C [19]: 86.6% | viability, T/C [20]: 92.6% | viability, T/C [21]: 78.8% | viability, T/C [22]: 72.3% | viability, T/C [23]: 26.2% | viability, T/C [24]: 23% | viability, T/C [25]: 77% | viability, T/C [26]: 81.9% | viability, T/C [27]: 78.2% | viability, T/C [28]: 61.9% | viability, T/C [29]: 18.6% | viability, T/C [30]: 9.94% | viability, T/C [31]: 60.9% | viability, T/C [32]: 54.3% | viability, T/C [33]: 37.5% | viability, T/C [34]: 25.9% | viability, T/C [35]: 5.34% | viability, T/C [36]: 2.55%

CCCS(=O)(=O)Nc1ccc(F)c(C(=O)c2c[nH]c3ncc(-c4ccc(Cl)cc4)cc23)c1F + CN(C)c1ccc(Nc2c3ccc(NC(=O)CCN4CCCC4)cc3nc3cc(NC(=O)CCN4CCCC4)ccc23)cc1
IC50 (second compound 0.0316 µM): 5.67 µM | IC50 (second compound 0.1 µM): 5.61 µM | IC50 (second compound 0.316 µM): 5.39 µM | IC50 (second compound 1 µM): 5.19 µM | IC50 (second compound 3.16 µM): 4.48 µM | IC50 (second compound 10 µM): 1.46 µM | viability, T/C [1]: 103% | viability, T/C [2]: 84.7% | viability, T/C [3]: 112% | viability, T/C [4]: 79.3% | viability, T/C [5]: 86.7% | viability, T/C [6]: 17.7% | viability, T/C [7]: 103% | viability, T/C [8]: 73.7% | viability, T/C [9]: 90.4% | viability, T/C [10]: 72% | viability, T/C [11]: 83.5% | viability, T/C [12]: 16.2% | viability, T/C [13]: 86.2% | viability, T/C [14]: 99.7% | viability, T/C [15]: 98% | viability, T/C [16]: 80.5% | viability, T/C [17]: 82.3% | viability, T/C [18]: 15.1% | viability, T/C [19]: 57.9% | viability, T/C [20]: 97.9% | viability, T/C [21]: 88% | viability, T/C [22]: 89.3% | viability, T/C [23]: 77.7% | viability, T/C [24]: 13.2% | viability, T/C [25]: 78.1% | viability, T/C [26]: 88.7% | viability, T/C [27]: 82.4% | viability, T/C [28]: 96.2% | viability, T/C [29]: 67.4% | viability, T/C [30]: 9.77% | viability, T/C [31]: 53.1% | viability, T/C [32]: 59.3% | viability, T/C [33]: 60.7% | viability, T/C [34]: 67.9% | viability, T/C [35]: 29.2% | viability, T/C [36]: 3.73%
